Our source for the Activity (mmolequiv/mmol), inhibition and IC50 values is ChEMBL document CHEMBL4270597, “Donepezil-butylated hydroxytoluene (BHT) hybrids as Anti-Alzheimer's disease agents with cholinergic, antioxidant, and neuroprotective properties” (Eur J Med Chem, 2018).

Test [1] can be described thus: Antioxidant activity assessed as trolox equivalent of AAPH-induced radical scavenging activity preincubated for 15 mins followed by AAPH addition measured every minute for 120 mins by ORAC-FL based fluorescein assay. It counts as functional.
The target of test [2] is Cholinesterase (Equus caballus) (UniProt P81908). The test can be described thus: Inhibition of equine serum BuChE at 100 uM using butyrylthiocholine iodide as substrate incubated for 5 mins followed by substrate addition measured after 180 secs by Ellman's method relative to control.
Cholinesterase (Equus caballus), sequence (P81908 whole entry): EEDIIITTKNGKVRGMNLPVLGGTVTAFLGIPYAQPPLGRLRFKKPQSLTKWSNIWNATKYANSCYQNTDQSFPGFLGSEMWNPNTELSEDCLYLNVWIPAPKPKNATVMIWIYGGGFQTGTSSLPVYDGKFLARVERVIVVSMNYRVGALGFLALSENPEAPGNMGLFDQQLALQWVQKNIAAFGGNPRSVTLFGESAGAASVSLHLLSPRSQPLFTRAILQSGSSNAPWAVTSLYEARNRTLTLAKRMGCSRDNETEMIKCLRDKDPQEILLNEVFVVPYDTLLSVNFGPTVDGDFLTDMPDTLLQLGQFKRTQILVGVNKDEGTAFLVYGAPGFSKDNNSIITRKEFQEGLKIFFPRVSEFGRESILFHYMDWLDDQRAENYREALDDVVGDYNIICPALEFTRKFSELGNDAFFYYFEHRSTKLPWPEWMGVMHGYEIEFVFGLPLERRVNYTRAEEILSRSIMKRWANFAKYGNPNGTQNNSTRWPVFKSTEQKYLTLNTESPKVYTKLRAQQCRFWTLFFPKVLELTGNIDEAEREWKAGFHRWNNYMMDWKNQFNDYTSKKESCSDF
A short description of test [3]: Antioxidant activity assessed as DPPH radical scavenging activity measured after 30 mins incubation in dark by UV-Visible spectrophotometric analysis. It counts as functional.
Test [4] concerns the target T1, Amine oxidase [flavin-containing] B (Homo sapiens, UniProt P27338).
T1 sequence (P27338 whole entry): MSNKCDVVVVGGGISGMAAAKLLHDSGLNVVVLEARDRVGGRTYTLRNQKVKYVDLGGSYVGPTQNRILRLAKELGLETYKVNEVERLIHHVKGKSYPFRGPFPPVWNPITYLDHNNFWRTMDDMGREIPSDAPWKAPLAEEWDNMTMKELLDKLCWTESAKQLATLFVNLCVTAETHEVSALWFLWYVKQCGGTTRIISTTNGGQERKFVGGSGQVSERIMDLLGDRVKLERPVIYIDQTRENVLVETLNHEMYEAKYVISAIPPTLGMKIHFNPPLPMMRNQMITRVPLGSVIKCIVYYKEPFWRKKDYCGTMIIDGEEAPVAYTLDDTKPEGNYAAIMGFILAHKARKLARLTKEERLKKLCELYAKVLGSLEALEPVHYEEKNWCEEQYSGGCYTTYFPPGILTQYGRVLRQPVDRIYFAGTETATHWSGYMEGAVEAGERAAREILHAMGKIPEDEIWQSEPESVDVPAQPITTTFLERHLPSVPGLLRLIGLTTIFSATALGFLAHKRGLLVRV
The test can be described thus: Inhibition of human MAO-B using p-tyramine as substrate incubated for 15 mins followed by substrate addition measured for 20 mins by fluorescence assay.

Test [5] can be described thus: Antioxidant activity assessed as ABTS radical cation scavenging activity by measuring trolox equivalent antioxidant capacity measured at 6 mins. Type of test: functional.
Test [6] deals with Acetylcholinesterase (Homo sapiens, UniProt P22303). The test can be described thus: Inhibition of human erythrocyte AChE using acetylthiocholine chloride as substrate incubated for 5 mins followed by substrate addition measured after 180 secs by Ellman's method.
Acetylcholinesterase (Homo sapiens, UniProt P22303), sequence (P22303 whole entry): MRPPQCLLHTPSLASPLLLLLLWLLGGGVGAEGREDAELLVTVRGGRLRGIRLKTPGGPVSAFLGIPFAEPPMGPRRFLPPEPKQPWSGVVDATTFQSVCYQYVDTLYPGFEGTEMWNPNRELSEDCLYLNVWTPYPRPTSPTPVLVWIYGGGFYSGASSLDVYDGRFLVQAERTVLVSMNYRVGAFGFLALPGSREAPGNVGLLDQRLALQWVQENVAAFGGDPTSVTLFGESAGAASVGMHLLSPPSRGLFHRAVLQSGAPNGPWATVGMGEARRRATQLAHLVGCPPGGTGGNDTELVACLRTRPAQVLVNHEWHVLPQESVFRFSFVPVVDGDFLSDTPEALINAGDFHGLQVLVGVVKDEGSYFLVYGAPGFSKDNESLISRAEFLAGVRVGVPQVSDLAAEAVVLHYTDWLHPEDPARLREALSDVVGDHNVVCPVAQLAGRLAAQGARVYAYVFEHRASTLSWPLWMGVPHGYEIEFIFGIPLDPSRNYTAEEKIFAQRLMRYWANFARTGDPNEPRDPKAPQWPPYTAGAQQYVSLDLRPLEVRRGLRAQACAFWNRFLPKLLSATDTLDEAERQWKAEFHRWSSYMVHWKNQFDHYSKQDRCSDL
In test [7] the target is Cholinesterase (Homo sapiens, UniProt P06276). Nature of the test: Inhibition of human serum BuChE using butyrylthiocholine iodide as substrate incubated for 5 mins followed by substrate addition measured after 180 secs by Ellman's method.
Cholinesterase, sequence (P06276 whole entry): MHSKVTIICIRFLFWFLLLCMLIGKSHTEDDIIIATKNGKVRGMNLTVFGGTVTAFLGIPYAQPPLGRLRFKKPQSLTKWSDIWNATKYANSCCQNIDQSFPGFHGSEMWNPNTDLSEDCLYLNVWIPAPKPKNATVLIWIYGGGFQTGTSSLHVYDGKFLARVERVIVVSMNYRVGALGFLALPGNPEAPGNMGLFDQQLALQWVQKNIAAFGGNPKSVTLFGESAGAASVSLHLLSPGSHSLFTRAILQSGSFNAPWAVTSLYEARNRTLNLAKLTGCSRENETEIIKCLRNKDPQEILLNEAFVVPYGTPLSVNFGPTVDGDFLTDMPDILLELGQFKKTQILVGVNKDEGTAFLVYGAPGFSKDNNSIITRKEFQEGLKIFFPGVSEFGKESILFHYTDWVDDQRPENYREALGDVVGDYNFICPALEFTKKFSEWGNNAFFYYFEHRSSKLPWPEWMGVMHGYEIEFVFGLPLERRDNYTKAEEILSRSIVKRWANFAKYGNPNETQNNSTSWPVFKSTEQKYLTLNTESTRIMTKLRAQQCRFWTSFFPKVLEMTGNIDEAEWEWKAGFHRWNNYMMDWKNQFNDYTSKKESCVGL
For test [8], the target named is T2, Amine oxidase [flavin-containing] A (Homo sapiens, UniProt P21397).
T2 sequence (P21397 whole entry): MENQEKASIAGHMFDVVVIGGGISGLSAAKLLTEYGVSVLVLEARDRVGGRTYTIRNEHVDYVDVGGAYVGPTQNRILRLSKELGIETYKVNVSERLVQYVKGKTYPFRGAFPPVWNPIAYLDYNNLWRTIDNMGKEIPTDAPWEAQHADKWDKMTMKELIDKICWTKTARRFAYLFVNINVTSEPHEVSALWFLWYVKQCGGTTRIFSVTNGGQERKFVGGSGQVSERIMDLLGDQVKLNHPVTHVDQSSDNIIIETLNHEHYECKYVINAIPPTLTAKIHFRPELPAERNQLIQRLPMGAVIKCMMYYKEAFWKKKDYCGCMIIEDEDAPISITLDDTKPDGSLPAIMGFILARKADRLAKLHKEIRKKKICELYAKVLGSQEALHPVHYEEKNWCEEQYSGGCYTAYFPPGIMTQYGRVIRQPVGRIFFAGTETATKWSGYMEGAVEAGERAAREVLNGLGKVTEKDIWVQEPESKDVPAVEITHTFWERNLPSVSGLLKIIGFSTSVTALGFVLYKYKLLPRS
The test can be described thus: Inhibition of human MAO-A using p-tyramine as substrate incubated for 15 mins followed by substrate addition measured for 20 mins by fluorescence assay.

Test [9] concerns the target Acetylcholinesterase (Electrophorus electricus, UniProt O42275). The test can be described thus: Inhibition of electric eel AChE using acetylthiocholine chloride as substrate incubated for 5 mins followed by substrate addition measured after 180 secs by Ellman's method.

Acetylcholinesterase (Electrophorus electricus, UniProt O42275), sequence (O42275 whole entry): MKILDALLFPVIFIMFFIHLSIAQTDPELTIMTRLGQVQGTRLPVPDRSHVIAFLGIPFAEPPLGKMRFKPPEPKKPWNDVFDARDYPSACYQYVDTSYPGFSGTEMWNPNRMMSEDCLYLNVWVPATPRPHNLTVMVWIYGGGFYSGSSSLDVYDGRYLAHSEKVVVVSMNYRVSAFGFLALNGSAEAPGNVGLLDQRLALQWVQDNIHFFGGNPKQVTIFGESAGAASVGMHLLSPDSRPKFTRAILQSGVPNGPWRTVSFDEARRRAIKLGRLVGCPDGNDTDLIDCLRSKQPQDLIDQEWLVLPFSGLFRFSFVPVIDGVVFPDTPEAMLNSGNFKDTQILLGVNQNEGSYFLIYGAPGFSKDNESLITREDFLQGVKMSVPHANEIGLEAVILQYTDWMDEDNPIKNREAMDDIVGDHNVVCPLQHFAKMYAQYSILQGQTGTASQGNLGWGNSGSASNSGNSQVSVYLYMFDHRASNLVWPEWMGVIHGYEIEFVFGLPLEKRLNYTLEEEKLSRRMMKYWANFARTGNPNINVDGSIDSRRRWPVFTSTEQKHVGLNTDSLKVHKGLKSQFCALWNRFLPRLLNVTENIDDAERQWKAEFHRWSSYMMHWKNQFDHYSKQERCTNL

For `CC(C)(C)c1cc(/C=C/C(=O)NCCC2CCN(Cc3ccc(Br)cc3)CC2)cc(C(C)(C)C)c1O`, the figures for the Activity (mmolequiv/mmol) in test [1] and in [5] were 1.59 and 0.77, respectively. The molecule further registered an inhibition in test [2] of 38.9%. Besides, the IC50 in [3] was 85.6 µM; in [4], 13.2 µM; in test [6], 3.81 µM; in [7] it was “Not Active”; in test [8], 73.2 µM; in test [9] it was 1.32 µM.

`CC(C)(C)c1cc(/C=C/C(=O)NCCC2CCN(Cc3cccc(F)c3)CC2)cc(C(C)(C)C)c1O`: the Activity (mmolequiv/mmol) in test [1] amounted to 1.59; in [5], 0.78. The inhibition in test [2] was 37.9%. For the same molecule, the IC50 in [3] is 55.2 µM; in test [4], 6.5 µM; in [6], 1.33 µM; in test [7] it was “Not Active”; in test [8], 58.4 µM; in test [9] it was 0.68 µM.

For the molecule `CC(C)(C)c1cc(/C=C/C(=O)NCCC2CCN(Cc3ccc(F)cc3)CC2)cc(C(C)(C)C)c1O`, the values for the Activity (mmolequiv/mmol) in test [1] and in test [5] were 1.51 and 0.88, respectively. In addition, the inhibition in test [2] stood at 40.2%. Further, the IC50 in test [3] is 57.5 µM; in test [4], 11.1 µM; in test [6], 0.98 µM; in [7] it was “Not Active”; in test [8] it was 59.6 µM; in test [9], 0.32 µM.

As for `COc1ccc(CN2CCC(CCNC(=O)/C=C/c3cc(C(C)(C)C)c(O)c(C(C)(C)C)c3)CC2)cc1`, the Activity (mmolequiv/mmol) in test [1] was determined as 1.66; in [5] it was 0.82. In [2], this molecule had an inhibition of 43.6%. Besides, the IC50 in test [3] is 61.2 µM; in [4], 6.7 µM; in [6], 2.12 µM; in [7], “Not Active”; in test [8], 72.5 µM; in test [9], 0.85 µM.

Regarding `CC(C)(C)c1cc(/C=C/C(=O)NCCC2CCN(Cc3cccc(Cl)c3)CC2)cc(C(C)(C)C)c1O`, the Activity (mmolequiv/mmol) in test [1] stood at 1.55; in [5] it was 0.74. Also, the inhibition in test [2] is 41.5%. For the same molecule, the IC50 in [3] was 83.1 µM; in [4] it was 8.7 µM; in test [6], 2.54 µM; in test [7], “Not Active”; in [8], 65.1 µM; in test [9], 0.74 µM.

As for `CC(C)(C)c1cc(/C=C/C(=O)NCCC2CCN(Cc3ccc(F)c(F)c3)CC2)cc(C(C)(C)C)c1O`, the Activity (mmolequiv/mmol) was 1.57 in test [1] and 0.79 in [5]. Also, the inhibition in test [2] came out at 39.9%. Also, the 50% inhibitory concentration (IC50) in test [3] is 65.7 µM; in test [4] it was 9.3 µM; in test [6], 1.62 µM; in test [7] it was “Not Active”; in test [8], 64.5 µM; in test [9] it was 0.42 µM.

Take `CC(C)(C)c1cc(/C=C/C(=O)NCCC2CCN(Cc3cccc([N+](=O)[O-])c3)CC2)cc(C(C)(C)C)c1O`: the Activity (mmolequiv/mmol) is 1.6 in [1] and 0.85 in test [5]. The inhibition in test [2] is 42.6%. For the same molecule, the IC50 in [3] is 78.1 µM; in test [4], 12.5 µM; in test [6], 3.46 µM; in test [7], “Not Active”; in test [8] it was 70.9 µM; in test [9], 1.21 µM.

For the molecule `CC(C)(C)c1cc(/C=C/C(=O)NCCC2CCN(Cc3ccccc3Cl)CC2)cc(C(C)(C)C)c1O`, the Activity (mmolequiv/mmol) in test [1] was determined as 1.6; in [5], 0.64. The inhibition in [2] stood at 35.5%. For the same molecule, the IC50 is 80.2 µM in [3]; 9.8 µM in test [4]; 2.44 µM in [6]; “Not Active” in test [7]; 72.1 µM in [8]; 0.59 µM in test [9].
